{"source": "ChEMBL document CHEMBL5576048", "about": "“A Second-Generation Oral SARS-CoV-2 Main Protease Inhibitor Clinical Candidate for the Treatment of COVID-19” (J Med Chem, 2024)", "test_system": "SARS-CoV-2", "experiment": "Antiviral activity against SARS-CoV-2 Delta variant infected in African green monkey VeroE6/TMPRSS2 cells", "assay_type": "functional, organism-based", "conditions": "Severe acute respiratory syndrome coronavirus 2, Delta"}
{"molecule": "CCC(CC)COC(=O)[C@H](C)N[P@](=O)(OC[C@H]1O[C@@](C#N)(c2ccc3c(N)ncnn23)[C@H](O)[C@@H]1O)Oc1ccccc1", "values": [{"measurement": "EC50", "value": 161, "unit": "nM"}]}
